Measurements taken from patent publication US9096829B2, “Human mast cell line and uses thereof” (UNIVERSITY OF SOUTH FLORIDA, priority 2009, dated 2015).

Key:
Assay type in all cases: cell-based, human
[1] = test system: USF-MC1 cells; assay: Beta-hexosaminidase (histamine) release from USF-MC1 mast cells
Experimental: (§1) FIGS. 3A-D show graphs of histamine (beta hexosaminidase) release from USF-MC1 cells compared to LAD2 cells after one hour (FIGS. 3A and 3B, respectively), and after six hours (FIGS. 3D and 3C, respectively). USF-MC1 cells (2×10^6 per well) were coated with biotinylated human myeloma IgE for 18 hours. Cells were then washed and challenged with streptavidin (100 ng/ml), ionomycin (5 μM), ANP (1 μM), ANP+KP2, ANP+Isatin. After 30 minutes, supernatants and cell lysates were developed with […] and optical density (OD) was read at 405 nm. Percent release is expressed as a ratio of supernatant over total (supernatant+lysate). […] In addition, ANP-induced histamine release is attenuated by an NPRA receptor antagonist (isatin).
In order to activate mast cells via the FceR1 receptor, cells were cultured for 18 hours with biotinylated human myeloma IgE (100 ng/ml)(Sigma). Cells were then challenged with streptavidin (100 ng/ml)(Sigma), ionomycin (5 μM), or atrial natriuretic peptide (ANP) (100 ng/ml). After 30 minutes, supernatants and cell pellets were harvested. Substrate solution (p-Nitrophenyl-N-acetyl-B-D-glucosaminide Calbiochem, 0.13% in sodium citric solution) was added to either the cell supernatants or pellets and incubated for 1.5 hr. 0.4M glycine solution was then added to stop the reaction. The optical density (OD) was read at 405 nm. Percent release was expressed as a ratio of supernatant over total (supernatant+lysate). Percent release of beta-hexosadminidase by SV40 LT-transfected USF-MC1 cells and non-transfected USF-MC1 cells is shown in FIG. 5C.
USF-MC1 cells (2×10^6 per well) were coated with biotinylated human myeloma IgE for 18 hours. Cells were then washed and challenged with streptavidin (100 ng/ml), ionomycin (5 μM), ANP (1 μM), ANP+KP2, ANP+Isatin. After 30 minutes, supernatants and cell lysates were developed with […] and optical density (OD) was read at 405 nm. Percent release is expressed as a ratio of supernatant over total (supernatant+lysate). […]

[2] = test system: LAD2 cells; assay: Beta-hexosaminidase (histamine) release from LAD2 mast cells; details: ANP challenge plus isatin
Experimental: as §1
In order to activate mast cells via the FceR1 receptor, cells were cultured for 18 hours with biotinylated human myeloma IgE (100 ng/ml)(Sigma). Cells were then challenged with streptavidin (100 ng/ml)(Sigma), ionomycin (5 μM), or atrial natriuretic peptide (ANP) (100 ng/ml). After 30 minutes, supernatants and cell pellets were harvested. […] The optical density (OD) was read at 405 nm. Percent release was expressed as a ratio of supernatant over total (supernatant+lysate). […]

[3] = test system: USF-MC1 cells; assay: Leukotriene C4 release (ELISA) from USF-MC1 mast cells; details: ANP challenge plus isatin
Experimental: (§2) TNF-a (R&G Systems), IL-17 (eBioscience), and Leukotrine C4 (Cayman Chemical) protein concentrations in mast cell supernatants were determined using ELISA kits from each respective manufacturer. Each ELISA was performed according to the manufacturer's instructions.

[4] = test system: LAD2 cells; assay: Leukotriene C4 release (ELISA) from LAD2 mast cells; details: ANP challenge plus isatin
Experimental: as §2

Structure (SMILES)	histamine (beta hexosaminidase) release after challenge ([1]; ionomycin 5 μM or ANP 1 μM, 30 minutes)	effect on ANP-induced release of B-Hex [2]	effect on ANP-induced release of LTC4 [3]	effect on ANP-induced histamine release ([1]; ANP 1 μM + isatin, 30 minutes)	effect on ANP-induced release of B-Hex ([1]; ANP challenge plus isatin)	effect on ANP-induced release of LTC4 [4]
C[C@H](CCC(=O)O)C[C@H](C)C[C@H](C)C(=O)/C=C(\O)[C@H](C)C[C@H](C)C/C=C/[C@@H](C)[C@@H](O)[C@@H](C)[C@@H](O)C[C@@H]1CC[C@@](C)([C@H]2CC[C@@](C)([C@@H](C)O)O2)O1 [ionomycin]	releases histamine within minutes	–	–	–	–	–
O=C1Nc2ccccc2C1=O [isatin]	–	reduced to baseline	reduced to baseline	attenuated	reduced to baseline	reduced to baseline
